{"source": "patent US10919913B2", "about": "“Spiro[3H-indole-3,2′-pyrrolidin]-2(1H)-one compounds and derivatives as MDM2-p53 inhibitors” (Boehringer Ingelheim International GmbH, priority 2014, dated 2021)", "origin": "cited, not measured here", "system": "p53 wild-type vs. p53 mutant cell lines", "details": "in vitro, PPTP of the NCI (Carol et al. 2013)", "data": [{"smiles": "CCOc1cc(C(C)(C)C)ccc1C1=N[C@@](C)(c2ccc(Cl)cc2)[C@@](C)(c2ccc(Cl)cc2)N1C(=O)N1CCN(CCCS(C)(=O)=O)CC1", "note": "[RG-7112]", "values": [{"measurement": "cytotoxic activity, median IC50 p53 wild-type vs. p53 mutant cell lines", "value": "lower median IC50 values for p53 wild-type vs. p53 mutant cell lines"}]}]}
